From patent publication US11254695B2, “Soluble C5aR antagonists” (CHEMOCENTRYX, INC., priority 2016, dated 2022)
In brackets after ≈: the same amount, converted by molar mass. Structures can show the parent of a compound that is named as a salt.

Key:
Type in all cases: physicochemical
[1] = Solubility in Milli-Q water, examined with naked eye; conditions: thermodynamic from solid; arbitrary amount in 1 mL Milli-Q water, room temperature, clear solution by naked eye; not the maximum solubility; read-out: Solubility in H2O
Source text: Experiments with no visible particles by naked eye were considered as clear solutions. It is important to note that the reported solubility information is not the maximum solubility of the compounds in water.

physchem = conditions: 25 °C, pH 7, aqueous buffer, thermodynamic from solid
Description: Saturated solutions of compound in pH 7 buffers were left overnight at room temperature (25° C.) before they were centrifuged. The supernatants were taken out and quantified. Solubility: 0.053 μg/mL.

[2] = Solubility of saturated solutions in D.I. water, quantified by LC-MS; conditions: thermodynamic from solid, saturated solution in D.I. water, shaken 3 hours at room temperature, average of four replicates
Description: Saturated solutions of compound were freshly prepared by adding 1 mL D.I. water into 0.8 mg compound powder. After shaking at room temperature for 3 hours, the samples were centrifuged under 14000 rpm for 15 minutes twice. The supernatants were carefully taken out and quantified by LC-MS. Solubility: 1.2±0.2 μg/mL (average of four replicates).

Row | Compound | solubility [1] | also measured
1 | Cc1cccc(F)c1C(=O)N1CCC[C@H](C(=O)Nc2ccc(COC(=O)C(N)C(C)C)c(C(F)(F)F)c2)[C@@H]1c1ccc(NC2CCCC2)cc1 (stereo in doubt) [Example 17, [4-[[(2R,3S)-2-[4-(cyclopentylamino)phenyl]-1-(2-fluoro-6-methyl-benzoyl)piperidine-3-carbonyl]amino]-2-(trifluoromethyl)phenyl]methyl (2R)-2-amino-3-methyl-butanoate] | 4000 µg/mL (≈ 5.74 mM) | 
2 | Cc1ccc(N(COP(=O)(O)O)C(=O)[C@H]2CCCN(C(=O)c3c(C)cccc3F)[C@H]2c2ccc(NC3CCCC3)cc2)cc1C(F)(F)F [Example 11, [N-[(2R,3S)-2-[4-(cyclopentylamino)phenyl]-1-(2-fluoro-6-methyl-benzoyl)piperidine-3-carbonyl]-4-methyl-3-(trifluoromethyl)anilino]methyl dihydrogen phosphate] | > 5000 µg/mL | 
3 | Cc1cccc(F)c1C(=O)N1CCC[C@H](C(=O)Nc2ccc(COC(=O)[C@@H](NC(=O)[C@@H](N)C(C)C)C(C)C)c(C(F)(F)F)c2)[C@@H]1c1ccc(NC2CCCC2)cc1 [Example 16, [4-[[(2R,3S)-2-[4-(cyclopentylamino)phenyl]-1-(2-fluoro-6-methyl-benzoyl)piperidine-3-carbonyl]amino]-2-(trifluoromethyl)phenyl]methyl (2S)-2-[[(2S)-2-amino-3-methyl-butanoyl]amino]-3-methyl-butanoate] | 5000 µg/mL (≈ 6.28 mM) | 
4 | Cc1ccc(NC(=O)[C@H]2CCCN(C(=O)c3c(C)cccc3F)[C@H]2c2ccc(N(C(=O)CNC(=O)[C@@H](N)CCCN)C3CCCC3)cc2)cc1C(F)(F)F [Example 6, (2R,3S)-2-[4-[cyclopentyl-[2-[[(2S)-2,5-diaminopentanoyl]amino]acetyl]amino]phenyl]-1-(2-fluoro-6-methyl-benzoyl)-N-[4-methyl-3-(trifluoromethyl)phenyl]piperidine-3-carboxamide dihydrochloride] | 5000 µg/mL | 
5 | Cc1ccc(NC(=O)[C@H]2CCCN(C(=O)c3c(C)cccc3F)[C@H]2c2ccc(N(C(=O)OCOC(=O)/C=C/C(=O)O)C3CCCC3)cc2)cc1C(F)(F)F [Example 10, (E)-4-[[cyclopentyl-[4-[(2R,3S)-1-(2-fluoro-6-methyl-benzoyl)-3-[[4-methyl-3-(trifluoromethyl)phenyl]carbamoyl]-2-piperidyl]phenyl]carbamoyl]oxymethoxy]-4-oxo-but-2-enoic acid] | 1000 µg/mL (≈ 1.33 mM) | 
6 | Cc1ccc(NC(=O)[C@H]2CCCN(C(=O)c3c(C)cccc3F)[C@H]2c2ccc(N(C(=O)OCOC(=O)[C@@H](N)C(C)C)C3CCCC3)cc2)cc1C(F)(F)F [Example 7, [cyclopentyl-[4-[(2R,3S)-1-(2-fluoro-6-methyl-benzoyl)-3-[[4-methyl-3-(trifluoromethyl)phenyl]carbamoyl]-2-piperidyl]phenyl]carbamoyl]oxymethyl (2S)-2-amino-3-methyl-butanoate] | 1000 to 2000 µg/mL (≈ 1.32 to 2.65 mM) | 
7 | Cc1ccc(NC(=O)[C@H]2CCCN(C(=O)c3c(C)cccc3F)[C@H]2c2ccc(N(C3CCCC3)P(=O)(O)OC(=O)C(C)C)cc2)cc1C(F)(F)F [Example 4, N-cyclopentyl-N-[4-[(2R,3S)-1-(2-fluoro-6-methyl-benzoyl)-3-[[4-methyl-3 (trifluoromethyl)phenyl]carbamoyl]-2-piperidyl]phenyl]-(2-methylpropanoyloxy)phosphonamidic acid] | 1000 µg/mL (≈ 1.37 mM) | 
8 | Cc1ccc(NC(=O)[C@H]2CCCN(C(=O)c3c(C)cccc3F)[C@H]2c2ccc(N(C(=O)CN(C)C)C3CCCC3)cc2)cc1C(F)(F)F [Example 1, (2R,3S)-2-[4-[cyclopentyl-[2-(dimethylamino)acetyl]amino]phenyl]-1-(2-fluoro-6-methyl-benzoyl)-N-[4-methyl-3-(trifluoromethyl)phenyl]piperidine-3-carboxamide] | > 10000 µg/mL | 
9 | Cc1ccc(NC(=O)[C@H]2CCCN(C(=O)c3c(C)cccc3F)[C@H]2c2ccc(N(C(=O)CN)C3CCCC3)cc2)cc1C(F)(F)F [Example 2, (2R,3S)-2-[4-[(2-aminoacetyl)-cyclopentyl-amino]phenyl]-1-(2-fluoro-6-methyl-benzoyl)-N-[4-methyl-3-(trifluoromethyl)phenyl]piperidine-3-carboxamide] | > 5000 µg/mL | 
10 | Cc1ccc(NC(=O)[C@H]2CCCN(C(=O)c3c(C)cccc3F)[C@H]2c2ccc(NC3CCCC3)cc2)cc1C(F)(F)F |  | solubility (physchem): 0.053 µg/mL (≈ 9.11e-05 mM)
11 | Cc1cccc(F)c1C(=O)N1CCC[C@H](C(=O)Nc2ccc(COC(=O)[C@@H](NC(=O)CN)C(C)C)c(C(F)(F)F)c2)[C@@H]1c1ccc(NC2CCCC2)cc1 [Example 15, [4-[[(2R,3S)-2-[4-(cyclopentylamino)phenyl]-1-(2-fluoro-6-methyl-benzoyl)piperidine-3-carbonyl]amino]-2-(trifluoromethyl)phenyl]methyl (2S)-2-[(2-aminoacetyl)amino]-3-methyl-butanoate] | 5000 µg/mL (≈ 6.63 mM) | 
12 | Cc1cccc(F)c1C(=O)N1CCC[C@H](C(=O)Nc2ccc(CO)c(C(F)(F)F)c2)[C@@H]1c1ccc(NC2CCCC2)cc1 |  | solubility at 3 h [2]: 1.2 ± 0.2 µg/mL (≈ 0.00201 mM)
13 | Cc1cccc(F)c1C(=O)N1CCC[C@H](C(=O)Nc2ccc(COC(=O)[C@H](C)N)c(C(F)(F)F)c2)[C@@H]1c1ccc(NC2CCCC2)cc1 [Example 18, [4-[[(2R,3S)-2-[4-(cyclopentylamino)phenyl]-1-(2-fluoro-6-methyl-benzoyl)piperidine-3-carbonyl]amino]-2-(trifluoromethyl)phenyl]methyl (2S)-2-aminopropanoate] | > 5000 µg/mL | 
14 | Cc1cccc(F)c1C(=O)N1CCC[C@H](C(=O)Nc2ccc(COC(=O)CNC(=O)CN)c(C(F)(F)F)c2)[C@@H]1c1ccc(NC2CCCC2)cc1 [Example 13] | 10000 µg/mL (≈ 14 mM) | 
15 | Cc1cccc(F)c1C(=O)N1CCC[C@H](C(=O)Nc2ccc(COC(=O)CNC(=O)[C@@H](N)C(C)C)c(C(F)(F)F)c2)[C@@H]1c1ccc(NC2CCCC2)cc1 [Example 14, [4-[[(2R,3S)-2-[4-(cyclopentylamino)phenyl]-1-(2-fluoro-6-methyl-benzoyl)piperidine-3-carbonyl]amino]-2-(trifluoromethyl)phenyl]methyl 2-[[(2S)-2-amino-3-methyl-butanoyl]amino]acetate] | 5000 µg/mL (≈ 6.63 mM) | 
16 | Cc1cccc(F)c1C(=O)N1CCC[C@H](C(=O)Nc2ccc(COC(=O)c3cccc(CN4CCN(C)CC4)c3)c(C(F)(F)F)c2)[C@@H]1c1ccc(NC2CCCC2)cc1 [Example 23, [4-[[(2R,3S)-2-[4-(cyclopentylamino)phenyl]-1-(2-fluoro-6-methyl-benzoyl)piperidine-3-carbonyl]amino]-2-(trifluoromethyl)phenyl]methyl 3-[(4-methylpiperazin-1-yl)methyl]benzoate] | > 1000 µg/mL | 
17 | Cc1cccc(F)c1C(=O)N1CCC[C@H](C(=O)Nc2ccc(COC(=O)CN)c(C(F)(F)F)c2)[C@@H]1c1ccc(NC2CCCC2)cc1 [Example 20, [4-[[(2R,3S)-2-[4-(cyclopentylamino)phenyl]-1-(2-fluoro-6-methyl-benzoyl)piperidine-3-carbonyl]amino]-2-(trifluoromethyl)phenyl]methyl 2-aminoacetate] | > 10000 µg/mL | 
18 | Cc1ccc(NC(=O)[C@H]2CCCN(C(=O)c3c(C)cccc3F)[C@H]2c2ccc(N(C(=O)OCOP(=O)(O)O)C3CCCC3)cc2)cc1C(F)(F)F [Example 9, phosphonooxymethyl N-cyclopentyl-N-[4-[(2R,3S)-1-(2-fluoro-6-methyl-benzoyl)-3-[[4-methyl-3-(trifluoromethyl)phenyl]carbamoyl]-2-piperidyl]phenyl]carbamate] | > 10000 µg/mL | 
19 | Cc1ccc(NC(=O)[C@H]2CCCN(C(=O)c3c(C)cccc3F)[C@H]2c2ccc(N(C(=O)CNC(=O)CN)C3CCCC3)cc2)cc1C(F)(F)F [Example 5, (2R,3S)-2-[4-[[2-[(2-aminoacetyl)amino]acetyl]-cyclopentyl-amino]phenyl]-1-(2-fluoro-6-methyl-benzoyl)-N-[4-methyl-3-(trifluoromethyl)phenyl]piperidine-3-carboxamide] | 10000 µg/mL (≈ 14.4 mM) | 
20 | Cc1ccc(NC(=O)[C@H]2CCCN(C(=O)c3c(C)cccc3F)[C@H]2c2ccc(N(C(=O)OCc3ccc(OP(=O)(O)O)cc3)C3CCCC3)cc2)cc1C(F)(F)F [Example 8, (4-phosphonooxyphenyl)methyl N-cyclopentyl-N-[4-[(2R,3S)-1-(2-fluoro-6-methyl-benzoyl)-3-[[4-methyl-3-(trifluoromethyl)phenyl]carbamoyl]-2-piperidyl]phenyl]carbamate] | 1000 µg/mL (≈ 1.23 mM) | 
21 | Cc1ccc(NC(=O)[C@H]2CCCN(C(=O)c3c(C)cccc3F)[C@H]2c2ccc(N(C3CCCC3)P(=O)(O)N[C@@H](Cc3c[nH]cn3)C(=O)O)cc2)cc1C(F)(F)F [Example 3, 2-[[[N-cyclopentyl-4-[(2R,3S)-1-(2-fluoro-6-methyl-benzoyl)-3-[[4-methyl-3-(trifluoromethyl)phenyl]carbamoyl]-2-piperidyl]anilino]-hydroxy-phosphoryl]amino]-3-(1H-imidazol-4-yl)propanoic acid] | 5000 µg/mL (≈ 6.26 mM) | 
22 | Cc1cccc(F)c1C(=O)N1CCC[C@H](C(=O)Nc2ccc(COCOP(=O)(O)O)c(C(F)(F)F)c2)[C@@H]1c1ccc(NC2CCCC2)cc1 [Example 22, [4-[[(2R,3S)-2-[4-(cyclopentylamino)phenyl]-1-(2-fluoro-6-methyl-benzoyl)piperidine-3-carbonyl]amino]-2-(trifluoromethyl)phenyl]methoxymethyl dihydrogen phosphate] | 15000 µg/mL | 
